Test results: patent publication US10870635B2, “Compounds and their use as BACE1 inhibitors” (ALLGENESIS BIOTHERAPEUTICS, INC., priority 2015, dated 2020)
Like-named read-outs stand apart in the source and are kept apart here.

What was measured:
[1] = target: BACE1 (recombinant β-secretase enzyme) (Homo sapiens (Human), UniProt P56817); test: AnaSpec BACE1 fluorescent assay (beta-secretase activity assay); assay type: biochemical
Experimental: A BACE1 activity assay kit from AnaSpec (Fremont, Calif.) was used to determine the potency of the selected BACE1 inhibitors by AnaSpec BACE1 fluorescent assay. The recombinant β-secretase enzyme was diluted 1:200 in 1× assay buffer (1 part of 1× assay buffer and 1 part of TBS containing 0.1% Tween 20). The enzyme was added in a volume of 40 μl to each well of a black 96-well micro plate.
The BACE1 inhibitors were serially diluted into DMSO from their 10 mM stock concentrations in DMSO. The serially diluted inhibitors were diluted 1:100 into 1× assay buffer in a 96-well polypropylene plate (assay dilution plate). The final concentration of the BACE1 inhibitor tested was 300 nM, 100 nM, 30 nM, 10 nM, 3 nM, 1 nM 0.3 nM, and 0.00 nM. Dose responses for inhibitors were run in duplicate.
A volume of 10 μl of the inhibitor from the assay dilution plate, a control inhibitor LY2886721 or inhibitor vehicle was then added to each well of the black 96-well micro plate containing BACE1.
(§1) To each well of the black 96-well micro plate, 50 μl of the β-secretase substrate (Hylite Fluor 488) diluted 1:100 using assay buffer was added. The reagents were mixed gently and the assay plate was placed into a POLARstar fluorescent plate reader with excitation wavelength set at 485 nm and the emission wavelength set at 520 nm. The plate reader was set to take readings every 5 minutes for up to 30 minutes or a 30 minute endpoint reading was used.
An appropriate integrated first-order rate equation was used to fit the data accumulated over a 30-40 minute collection period.

[2] = target: recombinant BACE2 (Homo sapiens (Human), UniProt Q9Y5Z0); test: AnaSpec BACE2 fluorescent assay; assay type: biochemical
Sequence of recombinant BACE2 (Q9Y5Z0 63-518): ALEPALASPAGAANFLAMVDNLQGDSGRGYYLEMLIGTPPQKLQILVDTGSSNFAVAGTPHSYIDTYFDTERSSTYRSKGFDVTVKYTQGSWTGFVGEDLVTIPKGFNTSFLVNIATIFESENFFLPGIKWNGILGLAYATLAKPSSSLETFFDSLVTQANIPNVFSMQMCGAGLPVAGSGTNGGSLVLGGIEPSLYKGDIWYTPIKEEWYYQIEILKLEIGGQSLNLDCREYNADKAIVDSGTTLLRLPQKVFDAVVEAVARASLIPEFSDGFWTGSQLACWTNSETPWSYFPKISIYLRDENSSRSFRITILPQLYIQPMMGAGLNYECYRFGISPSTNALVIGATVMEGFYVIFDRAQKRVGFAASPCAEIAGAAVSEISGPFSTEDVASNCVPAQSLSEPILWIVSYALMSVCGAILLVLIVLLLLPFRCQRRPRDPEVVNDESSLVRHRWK
Experimental: A BACE2 activity assay kit from AnaSpec (Fremont, Calif.) was used to determine the potency of the selected compounds by AnaSpec BACE2 fluorescent assay. To each well of a black 96-well micro plate, 50 μl of the β-secretase substrate (Hylite Fluor 488) diluted 1:100 using assay buffer was first added.
The compounds were serially diluted (1:2) into DMSO from their 10 mM stock concentrations in DMSO. The serially diluted inhibitors were diluted 1:100 into 1× assay buffer in a 96-well polypropylene plate (assay dilution plate). The final concentration of these compounds tested was 300 nM, 150 nM, 75 nM, 37.5 nM, 18.75 nM, 9.375 nM, 4.688 nM, 2.344 nM, 1.172 nM, 0.586 nM, and 0.293 nM.
A volume of 10 μl of the inhibitor from the assay dilution plate, a control inhibitor LY2886721 or inhibitor vehicle was then added to each well of the black 96-well micro plate.
The recombinant BACE2 was diluted in an assay buffer and the final BACE2 was 10.6 nM. The enzyme was added in a volume of 40 μl to each well of a black 96-well micro plate.
as §1, with “The” for “To each well of the black 96-well micro plate, 50 μl of the β-secretase substrate (Hylite Fluor 488) diluted 1:100 using assay buffer was added. The”
An appropriate integrated first-order rate equation was used to fit the data accumulated over a 30-40 minute collection period. Dose responses for inhibitors were run in duplicate.

[3] = test system: cellular production of amyloid β peptide (Aβ40) in 7PA2 CHO cells; test: Cell amyloid-beta production assay (MSD electrochemiluminescence immunoassay); assay type: cell-based; conditions: 12 hours incubation, read-out: Cell Abeta40 IC50
Source text: Amyloid-β (Aβ) is a 33-42-amino acid post-proteolytic peptide generated as the result of the sequential cleavage of amyloid precursor protein (APP) by BACE1 and γ-secretase. Substantial evidence points to aggregation and deposition of certain isoforms of amyloid β peptide in the brain being causal to neurodegeneration and dementia typical of AD. There are two major isoforms of Aβ which are monitored as a biomarker to gain early read on Aβ aggregation: Aβ340 and Aβ342. Increased extracellular accumulation of amyloid β peptide results in the formation of amyloid β peptide oligomers, cerebral amyloid plaques, neurodegeneration, and ultimately brain atrophy, all of which play a pivotal role in AD neuropathological hallmarks.
The reagents for the cell amyloid beta production assay were prepared as follows.
7PA2 CHO cells (licensed from Dr. Dennis Selkoe's laboratory) were plated into 96-well plates at a density of 50,000 cells per […] complete medium (DMEM medium containing 10% fetal bovine serum, L-glutamine, penicillin/streptomycin and 200 μg/ml of G418). Cells were incubated for 16-18 hours in complete medium and the culture medium was aspirated and discarded. Fresh complete medium containing test articles or positive control, LY2886721, within drug concentration range from 0.01 to 100 nM or complete medium only (controls) was added for 12 hours, and the cell culture medium was assayed directly or following a dilution with complete cell culture medium and frozen at −80° C. until it could be assayed for Aβ38, Aβ40 and Aβ42 content using an MSD multiplex electrochemiluminescence immunoassay.
In the Meso Scale Discovery electrochemiluminescence immunoassay, on a block plate, add 150 μL of Diluent 35 to each well, seal the plate with an adhesive plate seal and incubate with shaking for 1 hour at room temperature. Wash and then add detection antibody solution and samples. Wash the plate 3 times with at least 150 μL/well of wash buffer. […] Add 150 μL of 2× Read Buffer T to each well. Read the plate on the MSD imager. No incubation in read buffer is required before reading the plate. […]

[4] = target: Human recombinant cathepsin D (Homo sapiens (Human), UniProt P07339); test: Cathepsin D activity assay; assay type: biochemical; conditions: read-out: CatD IC50
Sequence of Human recombinant cathepsin D (P07339 65-412): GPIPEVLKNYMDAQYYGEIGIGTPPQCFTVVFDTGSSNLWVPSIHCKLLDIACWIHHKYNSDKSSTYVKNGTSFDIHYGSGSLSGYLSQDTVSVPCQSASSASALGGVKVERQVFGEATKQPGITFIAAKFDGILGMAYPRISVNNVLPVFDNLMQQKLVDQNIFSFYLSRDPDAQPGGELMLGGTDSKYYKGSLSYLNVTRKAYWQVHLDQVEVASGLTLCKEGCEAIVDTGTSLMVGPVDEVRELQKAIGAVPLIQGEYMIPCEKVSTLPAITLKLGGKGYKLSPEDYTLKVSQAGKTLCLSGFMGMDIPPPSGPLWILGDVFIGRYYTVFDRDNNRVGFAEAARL
Experimental: The development of a CatD activity assay is used to determine any potential cross reactivity for compounds selected from the β-secretase activity assay and to determine the selectivity to BACE1 inhibition. The CatD activity is reported for assessing target selectivity ratio (CatD IC50/BACE1 IC50).
The reagents for the cathepsin D assay were prepared as follows.
Human recombinant cathepsin D stored frozen in 2.0 μl aliquots was thawed and 42 μl of enzyme buffer (0.1M NaOAC, 0.2 M NaCl, pH 3.5) was added and incubated at 37° C. for 30 minutes. After 30 minutes the enzyme was further diluted to a final volume of 4.4 ml in enzyme buffer containing 5.0 mM DTT for immediate use in the cathepsin D assay.
The 7-methoxycoumarin-labeled peptide substrate (ES010) for cathepsin D was supplied as a 6.2 mM stock in DMSO. For use in the cathepsin D assay, the 6.2 mM stock was diluted to a 1.55 mM stock with DMSO. The 1.55 mM peptide stock in DMSO was further diluted 1:100 in reaction buffer (0.1M NaOAC, 0.2M NaCl, 0.1% Tween 20, 5.0 mM DTT, pH3.5) to create a 15.5 μM stock for use in the assay.
DMSO without compound served as a DMSO vehicle control for the cathepsin D assay. For each test compound, 30 μl of each dilution was pipetted into a separate well of a 96-well polypropylene plate. This polypropylene plate was labeled as the DMSO dilution plate and a plate map of test compound locations was made.
Test compounds from the DMSO dilution plate require a 1:100 dilution into reaction buffer before they can be added to the cathepsin D assay plate. To accomplish the 1:100 dilution of test compounds, 2.0 μl of each test compound at each concentration was pipetted from the DMSO dilution plate (using a multi-channel pipette calibrated to accurately dispense a 2.0 μl volume) into a new 96-well polypropylene plate using the plate map created for the DMSO dilution plate. This 96-well plate served as the inhibitor dilution plate. Next, 198 μl of reaction buffer was pipetted into each well of the inhibitor dilution plate (using a multi-channel pipette calibrated for accurate delivery of a 198 μl volume) and the pipetted test compound mixed by gentle up and down pipetting.
A1.0 mM stock of pepstatin A was made in DMSO and aliquotted into 5.0 μl samples for freezing and storage at −20° C. Upon thawing, 45 μl of DMSO (1:10 dilution) was added to create a 100 μM stock of pepstatin A in DMSO. The 100 μM Pepstatin A stock was further diluted 1:10 with DMSO to create a 10 μM stock in DMSO. […]
The assay plate was placed into a fluorescent plate reader with the excitation wavelength set at 320 nm and the emission wavelength set at 405 nm. Readings were collected every minute over a 30 minute collection period.

[5] = target: pepsin (activated recombinant human pepsinogen A) (Homo sapiens (Human), UniProt P0DJD9); test: Pepsin activity assay; assay type: biochemical
Sequence of pepsin (activated recombinant human pepsinogen A) (P0DJD9 63-388): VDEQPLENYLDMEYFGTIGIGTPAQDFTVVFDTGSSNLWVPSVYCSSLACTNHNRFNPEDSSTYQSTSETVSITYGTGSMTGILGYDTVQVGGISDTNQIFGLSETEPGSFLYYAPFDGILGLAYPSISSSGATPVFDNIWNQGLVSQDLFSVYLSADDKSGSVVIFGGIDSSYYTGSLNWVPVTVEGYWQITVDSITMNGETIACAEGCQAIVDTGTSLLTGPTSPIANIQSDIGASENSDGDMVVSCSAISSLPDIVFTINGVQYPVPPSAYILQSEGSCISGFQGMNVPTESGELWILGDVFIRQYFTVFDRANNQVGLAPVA
Experimental: 30 mM stocks of the experimental inhibitor compounds were prepared in DMSO. A 10 mM concentration of the inhibitor was prepared by diluting the 30 mM stock 3-fold in DMSO (30 μl of the [30 mM]:60 μl DMSO). 10-fold serial dilutions of 10 mM and 30 mM stocks were made on a dilution plate..
The pepstatin A inhibitor was received from Tocris Bioscience as 10 mg of lyophilized powder. DMSO was used to reconstitute the powder to a 10 mM concentration, which was aliquoted and stored at −20° C. A 40 μl volume of the 10 mM stock was thawed before use. 10-fold serial dilutions of 10 mM and 3 mM stocks were made in DMSO on a dilution plate.
Using a multichannel pipette, take a 2 μl volume of the diluted samples from the dilution plate into a new polypropylene 96-well plate. […]
After the enzyme addition, the substrate was added to each well in 50 μl volumes. […] The plate was immediately sealed and placed on a shaker set to 350 rpm for approximately 30 sec prior to reading in the Polar Star plate reader at room temperature with the excitation wavelength set at 320 nm, the emission wavelength set at 405 nm. Readings were taken every 41 seconds for approximately 25 minutes.
The selected BACE1 inhibitors in accordance with examples of the invention were then determined for Pepsin activity and target selectivity ratio (Pepsin IC50/BACE1 IC50).

Sequence of BACE1 (recombinant β-secretase enzyme) (P56817 46-501): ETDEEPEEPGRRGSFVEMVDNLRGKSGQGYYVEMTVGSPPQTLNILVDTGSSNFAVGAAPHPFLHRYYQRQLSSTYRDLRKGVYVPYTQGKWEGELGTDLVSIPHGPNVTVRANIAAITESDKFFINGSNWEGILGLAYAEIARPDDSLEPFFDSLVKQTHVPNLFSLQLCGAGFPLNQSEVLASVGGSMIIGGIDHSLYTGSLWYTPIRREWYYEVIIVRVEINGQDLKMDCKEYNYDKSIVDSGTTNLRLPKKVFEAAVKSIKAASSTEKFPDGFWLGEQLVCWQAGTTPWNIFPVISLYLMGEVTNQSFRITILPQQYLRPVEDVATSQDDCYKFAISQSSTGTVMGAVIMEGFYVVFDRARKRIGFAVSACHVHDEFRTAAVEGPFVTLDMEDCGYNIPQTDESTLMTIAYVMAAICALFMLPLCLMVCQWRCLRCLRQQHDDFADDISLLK

| IC50 [1] [nM] | IC50 [2] [nM] | IC50 [4] [µM] | IC50 [5] [µM] | SMILES | IC50 ([3]; Cricetulus griseus, CHO, 12 h) [nM] | IC50 [3] [nM] |
| --- | --- | --- | --- | --- | --- | --- |
| 39 | 12 | 17.2 | 3.14 | CC#Cc1ccc2sc3ccc([C@]4(C)CS(=O)(=O)C(C)(C)C(N)=N4)cc3c2c1 [Example 103, (R)-5-Amino-3,6,6-trimethyl-3-(8-(prop-1-yn-1-yl)dibenzo[b,d]thiophen-2-yl)-3,6-dihydro-2H-1,4-thiazine 1,1-dioxide] | 13 |  |
| 25 | 16 | 10.8 | 4.38 | CC#Cc1ccc2sc3cc(F)c([C@]4(C)CS(=O)(=O)C(C)(C)C(=N)N4)cc3c2c1 [Example 109, (R)-5-Amino-3-(3-fluoro-8-(prop-1-yn-1-yl)dibenzo[b,d]thiophen-2-yl)-3,6,6-trim ethyl-3,6-dihydro-2H-1,4-thiazine 1,1-dioxide] | 5.5 ± 1.95 | 5 |
